Measurements published in publication PMC8870237, “Improved Multimodal Tumor Necrosis Imaging with IRDye800CW-DOTA Conjugated to an Albumin-Binding Domain” (Cancers, 2022).
“Also recorded” adds a separate entry of the source. Blank lines part the entries; values can stand above or below the compound they belong to.

What was measured:
4T1-Luc2 cells [1] = experiment: In vitro dead/alive cell binding assay (fluorescence and γ-counting); format: cell-based, mouse; conditions: 100 nM, EtOH-killed or alive 4T1-Luc2 cells; for dead/alive cell binding, fluorescence signal: non-radioactive precursors, 30 min, 37 °C, 800 nm; for dead/alive cell binding, radioactivity: indium-111 labeled, 2.5 MBq/nmol, γ-counting
Procedure: The 4T1-Luc2 cells were cultured in RPMI-1640 medium containing 10% fetal bovine, penicillin (100 U/mL), and streptomycin ([…]) 37 °C under a humidified atmosphere with 5% CO2. The cells were seeded in 24 well plates (1 × 10^5 cells per well). The next day, the cells were killed with EtOH (70%, 50 μL) or kept alive and incubated for 30 min at 37 °C with 100 nM of the NACAs in culturing medium. The plate was then imaged on an Odyssey (Li-Cor, 800 nm laser intensity 5.0).
Similarly, these killed and alive cells were incubated with the indium-111 labeled NACAs (100 nM, 2.5 MBq/nmol) in culturing medium. The cells were washed with PBS and collected with NaOH (1.0 M) for γ-counting. These experiments were performed as triplicates.

[2] = n-octanol/PBS distribution coefficient (LogD7.4); format: physicochemical; conditions: LogD7.4, indium-111 labeled material, triplicates
Procedure: The [^111In]1, [^111In]2, and [^111In]3 were labeled at a molar activity of 10 MBq/nmol and 100 kBq was added to n-octanol (500 µL) and PBS (500 µL). After vigorous vortexing, the vial was centrifuged at 16.1 × 1000 g for 3 min. The octanol phase was carefully pipetted into a new vial and both layers were centrifuged again. From both the organic and the aqueous layers, samples (10 µL) were taken out and counted for activity on a γ-counter. LogD values were calculated as follows: Log ([NACA]n-octanol/[NACA]PBS). These experiments were performed as triplicates.

[3] = In vitro protein binding in mouse serum (ultrafiltration); format: in vitro ADME; conditions: 37 °C, 30 min, indium-111 labeled material
Procedure: Protein binding of the NACAs was determined as reported elsewhere. The NACAs were labeled with indium-111 (50 MBq/nmol), added to mouse serum (1 MBq/500 µL), and incubated at 37 °C for 30 min. Four portions of 10 µL were taken and counted on a γ-counter. The remaining serum was transferred to a centifree ultrafiltration device (4104 centrifugal filter units; Millipore, 30 kDa nominal molecular weight limit, methylcellulose micro partition membranes equilibrated once with 5% v/v Tween-80 in phosphate-buffered saline (PBS) and then trice with PBS) and centrifuged at 7.0 × 1000 g for 40 min at room temperature. Four portions of 10 µL from the filtrates were counted for radioactivity in a γ-counter. The amount of plasma-bound radioligand was calculated as the fraction between the radioactivity measured in the filtrate portions relative to the corresponding loading solution (set to 100%).

4T1-Luc2 cells [4] = experiment: Fluorescence microscopy of dead and alive cells; format: cell-based, mouse; conditions: unlabeled, 100 nM, 30 min, 37 °C
Procedure: The 4T1-Luc2 cells were seeded on 10 mm diameter coverslips in 24 well plates (10^5 cells per well). The cells were kept alive or killed with 50 µL EtOH (70%) and incubated in culturing medium with or without unlabeled 3 (100 nM) for 30 min at 37 °C. The cells were gently washed with PBS three times and incubated with Calcein-AM (CAM, 2 µM) and propidium iodide (PI, 4 µM) in PBS for 30 min at 37 °C [24]. Then, the cells were fixated with PFA (4% in PBS, 10 min, RT) and nuclei were stained with DAPI (Sigma-Aldrich, 1:1000 in PBS, 5 min). After final washing with PBS, the coverslips were removed from the well plate and mounted on a microscope slide for fluorescence microscope imaging at 20× magnification.

MCF7-Luc2 tumors = experiment: Tumor uptake in doxorubicin- or saline-treated MCF7-Luc2 tumor-bearing mice; format: in vivo, mouse; conditions: 1 h p.i., ±SEM
Procedure: (§1) The quadruple modality imaging procedure is illustrated in Figure S21. The tumor-bearing mice were injected with [^111In]3 (20 MBq, 2 nmol) in 200 µL PBS into the tail vein. The following day, the mice fasted for four hours before they were injected with [^18F]FDG (10 MBq, 200 µL) in PBS. At 24 h p.i. of [^111In]3 and 1 h p.i. of [^18F]FDG, FLI imaging was performed with a 730 nm excitation and 760 nm emission filter for 400 ms with 4 × 4 binning. Then, the mice received an intraperitoneal injection of D-luciferin (150 mg/kg) maintaining the position of the mice in the bed unaltered. During the onset of the bioluminescence signal, PET/SPECT imaging was performed of the tumors with a 2 cm axial field of view over a total scan time of 30 min, followed by a 2 min full-body CT. Finally, BLI imaging was performed with an open filter for 400 ms with 4 × 4 binning. Imaging was performed under isoflurane anesthesia whilst maintaining the body temperature constant.
Six mice were inoculated bilaterally with MCF7-Luc2 cells (3.0 × 10^6), suspended in 30 µL PBS:Matrigel (1:1; v/v). On days 14, 16, and 18 after inoculation, the tumor-bearing mice received either doxorubicin (5 mg/kg, Janssen Pharmaceuticals, Beerse, Belgium) or a saline solution via i.v. injection. On days 21 and 22 after inoculation, the mice underwent the FLI, BLI, and PET/SPECT/CT imaging procedure (vide supra).
(§2) After the final imaging experiments, the mice were sacrificed by cervical dislocation, tumors and organs were collected, weighted, and activity was accurately quantified by γ-counting to determine radioactivity uptake in the percentage of injected dose per gram (%ID/g). After γ-counting, the tumors were frozen in liquid nitrogen and stored at −80 °C overnight. Adjacent cryosections (10 µm) were prepared of the tumor centers for autoradiography. The sections were stored at −20 °C for the radioactivity to decay, before 800 nm fluorescence imaging and histochemical dead cell staining.

EMT6-Luc2 tumors = experiment: Tumor uptake in EMT6-Luc2 tumor-bearing mice; format: in vivo, mouse; conditions: untreated, 1 h p.i., ±SEM
Procedure: as §1, with “constant. […]” for “constant.”
as §2, with “After γ-counting, the tumors were frozen in liquid nitrogen and stored at −80 °C overnight. Adjacent cryosections (10 µm) were prepared of the tumor centers for autoradiography.” left out

4T1-Luc2 tumors = test system: 4T1-Luc2 tumors; set-up: method as in PMID 32514888; conditions: comparison value; cited from earlier work
[5] = In vivo stability (radio-HPLC of urine 1 h after injection); set-up: species or system mouse; conditions: mice, i.v., 1 h p.i.
Description: After an hour, the mice were sacrificed by cervical dislocation and blood and urine were collected, which were frozen in liquid nitrogen directly after extraction. […] The supernatant was collected and analyzed by radio-HPLC (Method-D).

- LogD [2]: −3.58 ± 0.07
- Protein Binding [3]: 70 ± 0.9%
SMILES: CC1(C)C(=CC=C2CCCC(C=CC3=[N+](CCCCCC(=O)NCCOCCOCCOCCOCCNC(=O)CN4CCN(CC(=O)O)CCN(CC(=O)O)CCN(CC(=O)O)CC4)c4ccc(S(=O)(=O)O)cc4C3(C)C)=C2Oc2ccc(S(=O)(=O)O)cc2)N(CCCCS(=O)(=O)O)c2ccc(S(=O)(=O)O)cc21 [Compound 1]
- dead/alive cell binding, fluorescence signal (4T1-Luc2 cells [1]): specifically bound to dead cells and not to live cells

SMILES: CC1(C)C(=CC=C2CCCC(C=CC3=[N+](CCCCCC(=O)NCCCCC(NC(=O)C(CCCCNC(=O)CCCc4ccc(I)cc4)NC(=O)CN4CCN(CC(=O)O)CCN(CC(=O)O)CCN(CC(=O)O)CC4)C(N)=O)c4ccc(S(=O)(=O)O)cc4C3(C)C)=C2Oc2ccc(S(=O)(=O)O)cc2)N(CCCCS(=O)(=O)O)c2ccc(S(=O)(=O)O)cc21 (stereo not drawn) [Compound 2]
- dead/alive cell binding, fluorescence signal (4T1-Luc2 cells [1]): considerably stronger binding to the dead cells than compound 1
- LogD [2]: −2.47 ± 0.01
- Protein Binding [3]: 95 ± 0.1%

SMILES: CC1(C)C(/C=C/C2=C(Oc3ccc(S(=O)(=O)O)cc3)C(=C/C=C3\N(CCCCS(=O)(=O)O)c4ccc(S(=O)(=O)O)cc4C3(C)C)/CCC2)=[N+](CCCCCC(=O)NCCCC[C@@H](NC(=O)CCCc2ccc(I)cc2)C(=O)NCc2ccc(CNC(=O)CN3CCN(CC(=O)O)CCN(CC(=O)O)CCN(CC(=O)O)CC3)cc2)c2ccc(S(=O)(=O)O)cc21 [Compound 3]
- dead/alive cell binding, fluorescence signal (4T1-Luc2 cells [1]): considerably stronger binding to the dead cells than compound 1
- LogD [2]: −2.73 ± 0.14
- NIR-fluorescence binding to dead and alive cells (microscopy) (4T1-Luc2 cells [4]): distinct NIR-fluorescent signal was observed from dead cells; also recorded: binds to dead cells and not to alive cells
- Protein Binding [3]: 94 ± 0.2%

SMILES: OC[C@H]1OC(O)[C@H]([18F])[C@@H](O)[C@@H]1O (stereo partly drawn) [[^18F]FDG, reference compound]
- tumor uptake of [18F]FDG (MCF7-Luc2 tumors; after doxorubicin treatment (5 mg/kg i.v., 3 injections)): 1.79 ± 0.11 %ID/g
- tumor uptake of [18F]FDG (MCF7-Luc2 tumors; after saline treatment (control)): 3.02 ± 0.51 %ID/g
- tumor uptake of [18F]FDG (EMT6-Luc2 tumors): 4.13 ± 0.58 %ID/g

SMILES: CC1(C)C(=CC=C2CCCC(C=CC3=[N+](CCCCCC(=O)NCCOCCOCCOCCOCCNC(=O)CN4CCN(CC(=O)[O-])CCN(CC(=O)[O-])CCN(CC(=O)[O-])CC4)c4ccc(S(=O)(=O)O)cc4C3(C)C)=C2Oc2ccc(S(=O)(=O)O)cc2)N(CCCCS(=O)(=O)O)c2ccc(S(=O)(=O)O)cc21.[111In+3] [[^111In]1, [^111In]In-DOTA-PEG4-IRDye800CW]
- radioactive tumor uptake in the SPECT images (4T1-Luc2 tumors): 0.26 ± 0.05 %ID/mL
- Protein Binding [3]: 70%

SMILES: CC1(C)C(=CC=C2CCCC(C=CC3=[N+](CCCCCC(=O)NCCCC[C@H](NC(=O)[C@H](CCCCNC(=O)CCCc4ccc(I)cc4)NC(=O)CN4CCN(CC(=O)[O-])CCN(CC(=O)[O-])CCN(CC(=O)[O-])CC4)C(N)=O)c4ccc(S(=O)(=O)O)cc4C3(C)C)=C2Oc2ccc(S(=O)(=O)O)cc2)N(CCCCS(=O)(=O)O)c2ccc(S(=O)(=O)O)cc21.[111In+3] [[^111In]2]
- dead/alive cell binding, radioactivity (4T1-Luc2 cells [1]): increased as compared to [^111In]1
- in vivo stability [5]: decomposed after an hour

SMILES: NCCCC[C@H](NC(=O)CCCc1ccc(I)cc1)C(=O)NCc1ccc(CNC(=O)CN2CCN(CC(=O)[O-])CCN(CC(=O)[O-])CCN(CC(=O)[O-])CC2)cc1.[111In+3] [[^111In]8]
- dead/alive cell binding, radioactivity (4T1-Luc2 cells [1]): did not show considerable dead cell binding
